Test results: ChEMBL document CHEMBL3596195, “Novel cajaninstilbene acid derivatives as antibacterial agents” (Eur J Med Chem, 2015)
Converted amounts (≈) assume the structure as drawn.

Tests used:
Format in all cases: functional
Proteus vulgaris = test: Antibacterial activity against Proteus vulgaris ATCC49101 assessed as bacterial growth inhibition after 24 hrs by broth dilution method; conditions: ATCC49101, 24 h
Staphylococcus aureus [1] = test: Antibacterial activity against methicillin-resistant Staphylococcus aureus ATCC513045 assessed as bacterial growth inhibition after 24 hrs by broth dilution method; conditions: ATCC513045, 24 h
[2] = tested on: Staphylococcus epidermidis; test: Antibacterial activity against Staphylococcus epidermidis ATCC12228 assessed as bacterial growth inhibition after 24 hrs by broth dilution method; conditions: ATCC12228, 24 h
Pseudomonas aeruginosa = test: Antibacterial activity against Pseudomonas aeruginosa ATCC2785 assessed as bacterial growth inhibition after 24 hrs by broth dilution method; conditions: ATCC2785, 24 h
Staphylococcus aureus [3] = test: Antibacterial activity against methicillin-resistant Staphylococcus aureus ATCC515992 assessed as bacterial growth inhibition after 24 hrs by broth dilution method; conditions: ATCC515992, 24 h
Staphylococcus aureus [4] = test: Antibacterial activity against Staphylococcus aureus ATCC25923 assessed as bacterial growth inhibition after 24 hrs by broth dilution method; conditions: ATCC25923, 24 h
Escherichia coli = test: Antibacterial activity against Escherichia coli ATCC25922 assessed as bacterial growth inhibition after 24 hrs by broth dilution method; conditions: ATCC25922, 24 h
Staphylococcus aureus [5] = test: Antibacterial activity against methicillin-resistant Staphylococcus aureus ATCC43300 assessed as bacterial growth inhibition after 24 hrs by broth dilution method; conditions: ATCC43300, 24 h
Staphylococcus aureus [6] = test: Antibacterial activity against methicillin-resistant Staphylococcus aureus ATCC62202 assessed as bacterial growth inhibition after 24 hrs by broth dilution method; conditions: ATCC62202, 24 h
Staphylococcus aureus [7] = test: Antibacterial activity against methicillin-resistant Staphylococcus aureus ATCC510019 assessed as bacterial growth inhibition after 24 hrs by broth dilution method; conditions: ATCC510019, 24 h
Staphylococcus aureus [8] = test: Antibacterial activity against methicillin-resistant Staphylococcus aureus ATCC52056 assessed as bacterial growth inhibition after 24 hrs by broth dilution method; conditions: ATCC52056, 24 h
Bacillus subtilis = test: Antibacterial activity against Bacillus subtilis ATCC6633 assessed as bacterial growth inhibition after 24 hrs by broth dilution method; conditions: ATCC6633, 24 h
Staphylococcus aureus [9] = test: Antibacterial activity against methicillin-resistant Staphylococcus aureus ATCC51033 assessed as bacterial growth inhibition after 24 hrs by broth dilution method; conditions: ATCC51033, 24 h
Staphylococcus aureus [10] = test: Antibacterial activity against methicillin-resistant Staphylococcus aureus ATCC425055 assessed as bacterial growth inhibition after 24 hrs by broth dilution method; conditions: ATCC425055, 24 h
Staphylococcus aureus [11] = test: Antibacterial activity against methicillin-resistant Staphylococcus aureus ATCC523512 assessed as bacterial growth inhibition after 24 hrs by broth dilution method; conditions: ATCC523512, 24 h

Structure (SMILES) | MIC (Proteus vulgaris) [µg/mL] | MIC (Staphylococcus aureus [1]) [µg/mL] | MIC [2] [µg/mL] | MIC (Pseudomonas aeruginosa) [µg/mL] | MIC (Staphylococcus aureus [3]) [µg/mL] | MIC (Staphylococcus aureus [4]) [µg/mL] | MIC (Escherichia coli) [µg/mL] | MIC (Staphylococcus aureus [5]) [µg/mL] | MIC (Staphylococcus aureus [6]) [µg/mL] | MIC (Staphylococcus aureus [7]) [µg/mL] | MIC (Staphylococcus aureus [8]) [µg/mL] | MIC (Bacillus subtilis) [µg/mL] | MIC (Staphylococcus aureus [9]) [µg/mL] | MIC (Staphylococcus aureus [10]) [µg/mL] | MIC (Staphylococcus aureus [11]) [µg/mL]
COC(=O)c1c(O)cc(OC)cc1/C=C/c1ccccc1F | > 128 | > 128 | 128 (≈ 423 µM) | 128 (≈ 423 µM) | > 128 | > 128 | > 128 | > 128 | > 128 | > 128 | > 128 | 128 (≈ 423 µM) | > 128 | > 128 | > 128
COC(=O)c1c(/C=C/c2cccc(C#N)c2)cc(OC)c(CC=C(C)C)c1O | > 128 | > 128 | 128 (≈ 339 µM) | > 128 | > 128 | > 128 | > 128 | > 128 | 128 (≈ 339 µM) | > 128 | > 128 | > 128 | > 128 | > 128 | > 128
COC(=O)c1c(O)cc(OC)cc1/C=C/c1ccc(C(F)(F)F)cc1 | > 128 | 128 (≈ 363 µM) | 128 (≈ 363 µM) | > 128 | > 128 | > 128 | > 128 | > 128 | > 128 | > 128 | > 128 | > 128 | > 128 | > 128 | > 128
CCn1cc(C(=O)O)c(=O)c2cc(F)c(N3CCNCC3)cc21 [NORFLOXACIN] | 16 (≈ 50.1 µM) | 4 (≈ 12.5 µM) | 2 (≈ 6.26 µM) | 16 (≈ 50.1 µM) | 16 (≈ 50.1 µM) | 2 (≈ 6.26 µM) | 32 (≈ 100 µM) | 4 (≈ 12.5 µM) | 8 (≈ 25.1 µM) | 8 (≈ 25.1 µM) | 8 (≈ 25.1 µM) | 2 (≈ 6.26 µM) | 4 (≈ 12.5 µM) | 4 (≈ 12.5 µM) | 8 (≈ 25.1 µM)
COc1ccc(/C=C/c2cc(OC)c(CC=C(C)C)c(O)c2C(=O)O)cc1 | > 64 | 16 (≈ 43.4 µM) | 32 (≈ 86.9 µM) | > 64 | 16 (≈ 43.4 µM) | 32 (≈ 86.9 µM) | > 128 | 16 (≈ 43.4 µM) | 16 (≈ 43.4 µM) | 16 (≈ 43.4 µM) | 16 (≈ 43.4 µM) | 16 (≈ 43.4 µM) | 32 (≈ 86.9 µM) | 8 (≈ 21.7 µM) | 16 (≈ 43.4 µM)
COC(=O)c1c(O)cc(OC)cc1/C=C/c1cccc(F)c1 | > 128 | > 128 | 128 (≈ 423 µM) | 128 (≈ 423 µM) | > 128 | > 128 | 128 (≈ 423 µM) | > 128 | > 128 | 128 (≈ 423 µM) | > 128 | 128 (≈ 423 µM) | > 128 | > 128 | > 128
COC(=O)c1c(O)cc(OC)cc1/C=C/c1cc(OC)c(OC)c(OC)c1 | > 128 | > 128 | > 128 | > 128 | 64 (≈ 171 µM) | > 128 | > 128 | > 128 | > 128 | > 128 | > 128 | > 128 | 128 (≈ 342 µM) | > 128 | > 128
COc1cc(C)c(C(=O)O)c(O)c1CC=C(C)C | > 128 | 32 (≈ 128 µM) | 64 (≈ 256 µM) | > 128 | 32 (≈ 128 µM) | 32 (≈ 128 µM) | > 128 | 32 (≈ 128 µM) | 32 (≈ 128 µM) | 64 (≈ 256 µM) | 64 (≈ 256 µM) | 64 (≈ 256 µM) | 32 (≈ 128 µM) | 32 (≈ 128 µM) | 32 (≈ 128 µM)
COc1cc(/C=C/c2ccc(C)cc2)c(C(=O)O)c(O)c1CC=C(C)C | > 64 | 8 (≈ 22.7 µM) | 32 (≈ 90.8 µM) | > 64 | 32 (≈ 90.8 µM) | 16 (≈ 45.4 µM) | > 128 | 32 (≈ 90.8 µM) | 32 (≈ 90.8 µM) | 32 (≈ 90.8 µM) | 16 (≈ 45.4 µM) | 16 (≈ 45.4 µM) | 16 (≈ 45.4 µM) | 16 (≈ 45.4 µM) | 32 (≈ 90.8 µM)
COc1cc(O)c(C(=O)O)c(/C=C/c2cccc(F)c2)c1 | > 128 | > 128 | 64 (≈ 222 µM) | > 128 | > 128 | > 128 | > 128 | > 128 | > 128 | > 128 | > 128 | > 128 | > 128 | > 128 | 128 (≈ 444 µM)
